Consider one compound from ChEMBL document CHEMBL3813632, “Thiazolo[3,2-a]benzimidazol-3(2H)-one derivatives: Structure-activity relationships of selective nucleotide pyrophosphatase/phosphodiesterase1 (NPP1) inhibitors” (Bioorg Med Chem, 2016).

The source made the active and inactive calls. The calls are words filed in the database; no cut-off is given here.

The nature of data set [1]: Chemical stability of the compound assessed as compound remaining at pH 9 at 25 degC after 24 hrs by HPLC-MS analysis. The data set is classed as physicochemical. The following applies: buffer, read-out: Stability.
The species entered for data set [2] is Homo sapiens. The data set can be described thus: Selectivity ratio of Ki for human recombinant soluble NTPDase1 to Ki for human recombinant NPP1.
For data set [3], the species on record is Homo sapiens. Nature of the data set: Selectivity ratio of Ki for human recombinant NPP2 to Ki for human recombinant NPP1.
Data set [4] in a line: Retention time of the compound in MgCl2/CaCl2/CHES buffer at pH 9 by LC-MS analysis. The data set is classed as physicochemical.
For data set [5], the target named is T1, Ectonucleotide pyrophosphatase/phosphodiesterase family member 3 (Homo sapiens) (UniProt O14638).
T1 sequence (whole entry): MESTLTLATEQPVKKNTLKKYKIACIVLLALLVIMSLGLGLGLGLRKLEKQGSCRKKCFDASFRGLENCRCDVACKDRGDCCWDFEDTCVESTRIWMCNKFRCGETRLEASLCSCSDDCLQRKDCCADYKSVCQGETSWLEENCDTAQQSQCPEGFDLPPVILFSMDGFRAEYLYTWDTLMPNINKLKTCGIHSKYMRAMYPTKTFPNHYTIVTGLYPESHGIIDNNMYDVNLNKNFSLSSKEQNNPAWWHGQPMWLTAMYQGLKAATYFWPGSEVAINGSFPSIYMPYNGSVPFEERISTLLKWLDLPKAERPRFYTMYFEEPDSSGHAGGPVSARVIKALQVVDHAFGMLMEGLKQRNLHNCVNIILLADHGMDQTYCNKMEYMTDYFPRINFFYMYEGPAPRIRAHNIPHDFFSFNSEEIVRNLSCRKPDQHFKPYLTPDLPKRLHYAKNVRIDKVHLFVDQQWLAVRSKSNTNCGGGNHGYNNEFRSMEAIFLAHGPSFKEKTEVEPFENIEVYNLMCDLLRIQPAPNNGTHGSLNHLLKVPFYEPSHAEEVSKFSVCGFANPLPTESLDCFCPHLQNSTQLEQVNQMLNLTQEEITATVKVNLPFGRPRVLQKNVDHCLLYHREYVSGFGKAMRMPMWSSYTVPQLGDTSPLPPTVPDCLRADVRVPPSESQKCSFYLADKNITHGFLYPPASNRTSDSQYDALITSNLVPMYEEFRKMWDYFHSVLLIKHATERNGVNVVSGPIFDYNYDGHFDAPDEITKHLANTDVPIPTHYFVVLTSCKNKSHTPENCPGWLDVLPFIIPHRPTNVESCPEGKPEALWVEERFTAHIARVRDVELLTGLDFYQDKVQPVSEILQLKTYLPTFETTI
Nature of the data set: Inhibition of human recombinant NPP3 expressed in insect SF9 cells using ATP as substrate at >100 uM preincubated with substrate followed by protein addition and subsequent incubation for 60 mins by capillary electrophoresis.

Data set [6] is filed under the species Homo sapiens. The data set can be described thus: Selectivity ratio of Ki for human recombinant Ecto-5'-nucleotidase to Ki for human recombinant NPP1.
A short description of data set [7]: Chemical stability of the compound assessed as compound remaining at pH 7.4 at 25 to 37 degC after 8 to 24 hrs by HPLC-MS analysis. As to conditions: buffer. The format is physicochemical.
Data set [8] addresses 5'-nucleotidase (Homo sapiens) (UniProt P21589). Nature of the data set: Inhibition of human recombinant Ecto-5'-nucleotidase expressed in CHO cells using AMP as substrate at >100 uM preincubated with substrate followed by protein addition and subsequent incubation for 30 mins by capillary electrophoresis.
For data set [9], the species on record is Homo sapiens. Nature of the data set: Selectivity ratio of Ki for human recombinant soluble NTPDase2 to Ki for human recombinant NPP1.
Data set [10] can be described thus: Drug metabolism of the compound in MgCl2/CaCl2/CHES buffer assessed as 2-hydroxy-3-(5-iodofuran-2-yl)-1-(2-thioxo-2,3-dihydro-1H-benzo[d]imidazol-1-yl)prop-2-en-1-one metabolite formation at pH 9 after 24 hrs by LC-MS analysis. The format is physicochemical. As to conditions: pH 9, 24 h.

Sequence of 5'-nucleotidase (Homo sapiens) (P21589 whole entry): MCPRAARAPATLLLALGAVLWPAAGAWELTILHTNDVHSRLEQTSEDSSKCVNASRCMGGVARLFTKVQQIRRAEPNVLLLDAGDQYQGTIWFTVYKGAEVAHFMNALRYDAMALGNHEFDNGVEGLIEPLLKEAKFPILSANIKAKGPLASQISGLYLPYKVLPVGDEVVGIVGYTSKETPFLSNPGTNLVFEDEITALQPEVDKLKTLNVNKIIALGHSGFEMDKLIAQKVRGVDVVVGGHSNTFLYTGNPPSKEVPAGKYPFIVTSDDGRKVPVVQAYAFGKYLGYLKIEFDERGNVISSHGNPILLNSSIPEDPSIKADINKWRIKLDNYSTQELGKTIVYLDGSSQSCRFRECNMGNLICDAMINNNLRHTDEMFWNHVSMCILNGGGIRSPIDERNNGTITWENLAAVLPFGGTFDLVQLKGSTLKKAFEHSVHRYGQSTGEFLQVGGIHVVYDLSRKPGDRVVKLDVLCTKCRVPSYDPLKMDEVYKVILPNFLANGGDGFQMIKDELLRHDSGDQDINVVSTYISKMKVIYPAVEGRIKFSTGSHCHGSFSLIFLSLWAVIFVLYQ

Regarding `O=c1/c(=C/c2ccc(I)o2)sc2nc3ccccc3n12`, the remaining at 24 h in data set [1] is 52.4%. Besides, the Ratio Ki in the data set listed under Homo sapiens [2], in the data set filed under Homo sapiens [3], in the data set listed under Homo sapiens [6] and in the data set filed under Homo sapiens [9] was 1000 each time. Besides, in [4], the Retention_time turned out to be 8.2 min. The inhibition result in data set [5] and in data set [8] was “Active” throughout. Further, the Stability result in data set [7] is reported as “Stable”. For the same compound, the Drug metabolism entry in data set [10] is reported as “metabolite_detected”.
